Results published in patent publication US7795456B2, “Insecticidal N-substituted sulfoximines” (Dow AgroSciences LLC, priority 2004, dated 2010).

Legend:
[1] = system: yellow fever mosquito (Aedes aegypti) larvae; test: whole plant or invertebrate; format: in vivo; settings: 72 h, read-out: YFM 26: % control at 26 ppm against yellow fever mosquito in submerge tests
[2] = system: Colorado potato beetle (Leptinotarsa decemlineata); test: Insecticidal test for Colorado potato beetle, foliar spray on tomato; format: in vivo; settings: for % Control at ppm, against Colorado potato beetle: 12.5: 12.5 ppm; for % Control at ppm, against Colorado potato beetle: 12.5 / % Control at ppm, against Colorado potato beetle: 50 / % Control at ppm, against Colorado potato beetle: 0.78 / % Control at ppm, against Colorado potato beetle: 3.13: rundown assay; for CPB 50: % control at 50 ppm against Colorado potato beetle in foliar spray tests: 5 days, Corrected % Control; for CPB 50: % control at 50 ppm against Colorado potato beetle in foliar spray tests / % Control at ppm, against Colorado potato beetle: 50: 50 ppm; for % Control at ppm, against Colorado potato beetle: 0.78: 0.78 ppm; for % Control at ppm, against Colorado potato beetle: 3.13: 3.13 ppm
Protocol: Insecticidal Test for Colorado Potato Beetle (Leptinotarsa decemlineata).
Tomato seedlings at the growth stage of three or four expanding leaves were used. […] Treated plants were held in the laboratory for approximately 3 h to allow drying before the upper portion (with two or three leaves) of a plant was cut and placed in a 10×2.5-cm petri dish containing approximately 10 mL of solidified 1% agar at the bottom. Five 2nd or 3rd instar larvae were placed on the treated plant tissue, and the petri dishes were covered and held in an incubator at 25° C. At 5 days following treatment, insecticidal activity was evaluated by counting the number of live larvae in each dish.

[3] = system: corn earworm (Helicoverpa zea); settings: 50 μg/cm2, second-instar larvae, 5 days
[4] = system: beet armyworm (Spodoptera exigua); settings: 50 μg/cm2, second-instar larvae, 5 days
[5] = system: fruit fly (Drosophila melanogaster); settings: for FF SYM: % showing intoxicated symptoms at 25 μg/cm2 against fruit fly in dietary tests: 25 μg/cm2, 4 h; for FF 25: % mortality at 25 μg/cm2 against fruit fly in dietary tests: 25 μg/cm2, 48 h
[6] = system: beet armyworm (Spodoptera exigua); test: Insecticidal test for beet armyworm in injection assays; settings: 1 h, read-out: BAW SYM: % showing intoxicated symptoms at 10 μg/larva against beet armyworm in injection tests
[7] = system: cotton aphid (Aphis gossypii); test: Insecticidal test for cotton aphid, foliar spray on squash; settings: for pest or weed control at 50 ppm / pest or weed control at 200 ppm: Aphis gossypii, foliar, 72 h; for pest or weed control at 50 ppm: read-out: CA 50: % control at 50 ppm against cotton aphid in foliar spray tests; for pest or weed control at 200 ppm: read-out: CA 200: % control at 200 ppm against cotton aphid in foliar spray tests; for % Control at ppm, against cotton aphid: 0.049: 0.049 ppm; for % Control at ppm, against cotton aphid: 0.049 / % Control at ppm, against cotton aphid: 0.195 / % Control at ppm, against cotton aphid: 0.78 / % Control at ppm, against cotton aphid: 3.12 / % Control at ppm, against cotton aphid: 12.5 / % Control at ppm, against cotton aphid: 50: rundown assay; for % Control at ppm, against cotton aphid: 0.195: 0.195 ppm; for % Control at ppm, against cotton aphid: 0.78: 0.78 ppm; for % Control at ppm, against cotton aphid: 3.12: 3.12 ppm; for % Control at ppm, against cotton aphid: 12.5: 12.5 ppm; for % Control at ppm, against cotton aphid: 50: 50 ppm
[8] = system: sweet potato whitefly (Bemisia tabaci); test: Insecticidal test for sweet potato whitefly, foliar spray on cotton; settings: for % Control at ppm, against sweet potato whitefly: 0.4-0.78: 0.4-0.78 ppm; for % Control at ppm, against sweet potato whitefly: 0.4-0.78 / % Control at ppm, against sweet potato whitefly: 2-3.13 / % Control at ppm, against sweet potato whitefly: 10-12.5 / % Control at ppm, against sweet potato whitefly: 50: rundown assay; for % Control at ppm, against sweet potato whitefly: 2-3.13: 2-3.13 ppm; for % Control at ppm, against sweet potato whitefly: 10-12.5: 10-12.5 ppm; for % Control at ppm, against sweet potato whitefly: 50: 50 ppm; for pest or weed control at 200 ppm: Bemisia tabaci, in Gossypium hirsutum, foliar, read-out: SPW 200: % control at 200 ppm against sweet potato whitefly in foliar spray tests
[9] = system: green peach aphid (Myzus persicae); test: Insecticidal test for green peach aphid, foliar spray on cabbage seedlings; settings: rundown assay, 3 days; for % Control at ppm, against green peach aphid: 0.049: 0.049 ppm; for % Control at ppm, against green peach aphid: 0.195: 0.195 ppm; for % Control at ppm, against green peach aphid: 0.78: 0.78 ppm; for % Control at ppm, against green peach aphid: 3.12: 3.12 ppm; for % Control at ppm, against green peach aphid: 12.5: 12.5 ppm; for % Control at ppm, against green peach aphid: 50: 50 ppm

Row | SMILES | pest or weed control at 26 ppm [1] [%] | % Control at ppm, against Colorado potato beetle: 12.5 [2] | CPB 50: % control at 50 ppm against Colorado potato beetle in foliar spray tests [2] | % Control at ppm, against Colorado potato beetle: 50 [2] | CEW 50: % mortality at 50 μg/cm2 against corn earworm in dietary tests [3] | BAW 50: % mortality at 50 μg/cm2 against beet armyworm in dietary tests [4] | FF SYM: % showing intoxicated symptoms at 25 μg/cm2 against fruit fly in dietary tests [5] | FF 25: % mortality at 25 μg/cm2 against fruit fly in dietary tests [5] | pest or weed control at 0.01 mg [6] [%] | pest or weed control at 50 ppm [7] [%] | pest or weed control at 200 ppm [7] [%] | % Control at ppm, against sweet potato whitefly: 0.4-0.78 [8] | % Control at ppm, against sweet potato whitefly: 2-3.13 [8] | % Control at ppm, against sweet potato whitefly: 10-12.5 [8] | % Control at ppm, against sweet potato whitefly: 50 [8] | pest or weed control at 200 ppm [8] [%] | % Control at ppm, against Colorado potato beetle: 0.78 [2] | % Control at ppm, against Colorado potato beetle: 3.13 [2] | % Control at ppm, against cotton aphid: 0.049 [7] | % Control at ppm, against cotton aphid: 0.195 [7] | further results
1 | CS(=O)(Cc1ccc(Cl)nc1)=NC#N (stereo not shown) [Compound 10, [(6-Chloropyridin-3-yl)methyl](methyl)oxido-λ^4-sulfanylidene-cyanamide] | 90 to 100 | E (50-59) | B (80-89) | B (80-89) | G (Inactive) | G (Inactive) | A (90-100) | A (90-100) | < 50 | 90 to 100 | 90 to 100 | F (Less than 50) | D (60-69) | A (90-100) | A (90-100) | 90 to 100 | – | – | – | – | –
2 | N#CN=[S@@]1(=O)CCCC1Cc1ccc(Cl)nc1 (stereo partly shown) [Compound 20] | 90 to 100 | A (90-100) | A (90-100) | A (90-100) | G (Inactive) | G (Inactive) | F (Less than 50) | F (Less than 50) | 80 to 89 | 90 to 100 | 90 to 100 | F (Less than 50) | F (Less than 50) | A (90-100) | A (90-100) | 90 to 100 | F (Less than 50) | F (Less than 50) | B (80-89) | A (90-100) | % Control at ppm, against cotton aphid: 0.78 [7]: A (90-100); % Control at ppm, against cotton aphid: 3.12 [7]: A (90-100); % Control at ppm, against cotton aphid: 12.5 [7]: A (90-100); % Control at ppm, against cotton aphid: 50 [7]: A (90-100); % Control at ppm, against green peach aphid: 0.049 [9]: F (Less than 50); % Control at ppm, against green peach aphid: 0.195 [9]: F (Less than 50); % Control at ppm, against green peach aphid: 0.78 [9]: F (Less than 50); % Control at ppm, against green peach aphid: 3.12 [9]: F (Less than 50); % Control at ppm, against green peach aphid: 12.5 [9]: A (90-100); % Control at ppm, against green peach aphid: 50 [9]: A (90-100)
3 | CC(c1ccc(Cl)nc1)S(C)(=O)=NC#N (stereo not shown) [Compound 8, [1-(6-chloropyridin-3-yl)ethyl](methyl)oxido-λ^4-sulfanylidenecyanamide] | 90 to 100 | A (90-100) | A (90-100) | A (90-100) | G (Inactive) | G (Inactive) | A (90-100) | A (90-100) | 50 to 59 | 90 to 100 | 90 to 100 | A (90-100) | A (90-100) | A (90-100) | A (90-100) | 90 to 100 | – | D (60-69) | – | – | –
4 | O=[N+]([O-])N=[S@@]1(=O)CCCC1Cc1ccc(Cl)nc1 (stereo partly shown) [Compound 41] | 90 to 100 | D (60-69) | A (90-100) | A (90-100) | G (Inactive) | G (Inactive) | – | F (Less than 50) | – | 90 to 100 | 90 to 100 | – | – | – | – | 90 to 100 | F (Less than 50) | F (Less than 50) | C (70-79) | A (90-100) | % Control at ppm, against cotton aphid: 0.78 [7]: A (90-100); % Control at ppm, against cotton aphid: 3.12 [7]: A (90-100); % Control at ppm, against cotton aphid: 12.5 [7]: A (90-100); % Control at ppm, against cotton aphid: 50 [7]: A (90-100); % Control at ppm, against green peach aphid: 0.049 [9]: F (Less than 50); % Control at ppm, against green peach aphid: 0.195 [9]: F (Less than 50); % Control at ppm, against green peach aphid: 0.78 [9]: E (50-59); % Control at ppm, against green peach aphid: 3.12 [9]: D (60-69); % Control at ppm, against green peach aphid: 12.5 [9]: A (90-100); % Control at ppm, against green peach aphid: 50 [9]: A (90-100)
5 | O=[N+]([O-])N=S1(=O)CCCC1Cc1ccc(Cl)nc1 (stereo not shown) [Compound 35] | 80 to 89 | – | B (80-89) | – | G (Inactive) | G (Inactive) | D (60-69) | F (Less than 50) | < 50 | 90 to 100 | 90 to 100 | – | – | – | – | 90 to 100 | – | – | – | – | –
